pIC50: −log10 of the molar value.
How the values were obtained:
[1] = test system: Trypanosoma brucei; test: Antitrypanosomal activity against Trypanosoma brucei Lister 427 bloodstream forms after 48 hrs by resazurin dye based fluorescence assay; type: functional, organism-based; details: Lister 427, 48 h
[2] = test system: Trypanosoma cruzi; test: Antitrypanosomal activity against Trypanosoma cruzi Tulahuen trypomastigote forms infected in monkey LLC-MK2 cells after 24 hrs by CellTiter-Glo luminescent cell viability assay; type: functional, organism-based; details: LLC-MK2, 24 h
[3] = test system: Leishmania donovani; test: Antileishmanial activity against Leishmania donovani MHOM/SD/62/1S-CL2D LdBOB axenic amastigotes harboring eGFP after 72 hrs by resazurin dye based fluorescence assay; type: functional, organism-based
[4] = test system: Trypanosoma cruzi; test: Antitrypanosomal activity against Trypanosoma cruzi Tulahuen amastigote forms infected in rat H9c2 cells assessed as reduction in infected cells after 72 hrs by DRAQ5 DNA dye based confocal microscopic analysis; type: functional, organism-based; details: H9c2, 72 h
[5] = test system: Trypanosoma cruzi; test: Antitrypanosomal activity against Trypanosoma cruzi Tulahuen amastigote forms infected in rat H9c2 cells assessed as reduction in amastigote number per cell after 72 hrs by DRAQ5 DNA dye based confocal microscopic analysis; type: functional, organism-based; details: H9c2, 72 h
[6] = test system: H9c2; test: Cytotoxicity against rat H9c2 cells infected with Trypanosoma cruzi Tulahuen amastigote forms assessed as reduction in cell number after 72 hrs by DRAQ5 DNA dye based confocal microscopic analysis; details: H9c2, 72 h
[7] = test system: Leishmania donovani; test: Antileishmanial activity against Leishmania donovani MHOM/SD/62/1S-CL2D LdBOB amastigotes harboring eGFP infected in human THP1 cells assessed as reduction in infected cells after 96 hrs by DAPI staining based microscopic analysis; type: functional, organism-based; details: THP-1, 96 h
[8] = test system: Leishmania donovani; test: Antileishmanial activity against Leishmania donovani MHOM/SD/62/1S-CL2D LdBOB amastigotes harboring eGFP infected in human THP1 cells assessed as reduction in number of amastigotes per cell after 96 hrs by DAPI staining based microscopic analysis; type: functional, organism-based; details: THP-1, 96 h
[9] = test system: THP-1; test: Cytotoxicity against human THP1 cells infected with Leishmania donovani MHOM/SD/62/1S-CL2D LdBOB amastigotes harboring eGFP assessed as reduction in cell number after 96 hrs by DAPI staining based microscopic analysis; details: THP-1, 96 h
[10] = Cytotoxicity against human HepG2 cells after 48 hrs by CellTiter-Glo cell viability assay; type: cell-based
[11] = test system: Leishmania donovani; test: Potency index, ratio of amphotericin B IC50 to test compound IC50 for Leishmania donovani MHOM/SD/62/1S-CL2D LdBOB axenic amastigotes harboring eGFP; type: functional
[12] = test system: Leishmania donovani; test: Potency index, ratio of miltefosine IC50 to test compound IC50 for Leishmania donovani MHOM/SD/62/1S-CL2D LdBOB axenic amastigotes harboring eGFP; type: functional

Structure (SMILES)	pIC50 [1]	pIC50 [2]	pIC50 [3]	pIC50 [4]	pIC50 [5]	pIC50 [6]	pIC50 [7]	pIC50 [8]	pIC50 [9]	CC50 at 48 h [10] [µM]	Ratio IC50 [11]	Ratio IC50 [12]
COc1ccc(-c2nc3ccccc3nc2-c2ccc(OC)cc2)cc1	4.50	< 4.30	< 4.30	4.90	5.00	< 4.30	< 4.30	< 4.30	< 4.30	> 100	–	–
Clc1ccc2nc(-c3ccccc3)c(-c3ccccc3)nc2c1	4.60	< 4.30	< 4.30	4.70	4.80	< 4.30	< 4.30	< 4.30	< 4.30	> 100	–	–
Clc1cc2nc(-c3ccccc3)c(-c3ccccc3)nc2cc1Cl	4.40	< 4.30	< 4.30	< 4.30	< 4.30	< 4.30	< 4.30	< 4.30	< 4.30	> 100	–	–
Cc1ccc(-c2nc3cc(Cl)c(Cl)cc3nc2-c2ccccc2)cc1	4.70	< 4.30	< 4.30	4.80	5.00	< 4.30	< 4.30	< 4.30	< 4.30	> 100	–	–
CS(=O)(=O)c1ccc(-c2nc3ccc(Br)cc3nc2-c2ccc(Cl)cc2)cc1	5.90	7.22	6.49	5.70	5.70	5.90	5.40	5.60	5.70	2	5.3	26.3
COc1ccc2nc(-c3ccc(Cl)cc3)c(-c3ccc([S+](C)[O-])cc3)nc2c1 (stereo unspecified)	5.40	5.98	5.50	4.90	5.00	5.20	4.90	4.90	4.90	7.94	–	–
CS(=O)(=O)c1ccc(-c2nc3ccc(Cl)cc3nc2-c2ccc(Cl)cc2)cc1	5.60	7.05	6.49	5.70	5.70	5.80	5.30	5.30	5.80	2	5.3	26.3
C[S+]([O-])c1ccc(-c2nc3ccc(Cl)cc3nc2-c2ccc(Cl)cc2)cc1 (stereo unspecified)	6.20	7.00	6.49	5.70	5.80	5.80	5.50	5.40	5.80	1.58	5.3	26.3
